Source: ChEMBL document CHEMBL5579822, “Targeting cyclin-dependent kinases: From pocket specificity to drug selectivity” (Eur J Med Chem, 2024)

Columns and labels:
[1] = molecular target: Cyclin-dependent kinase 13/Cyclin-K (Homo sapiens, UniProt Q14004)
[2] = molecular target: T1, Cyclin-dependent kinase 4 (Homo sapiens, UniProt P11802)
[3] = molecular target: Cyclin-dependent kinase 1 (Homo sapiens, UniProt P06493)
[4] = molecular target: T2, Cyclin-dependent kinase 6 (Homo sapiens, UniProt Q00534)
[5] = molecular target: T3, Cyclin-dependent kinase 2 (Homo sapiens, UniProt P24941)
[6] = molecular target: T4, Cyclin-dependent kinase 9 (Homo sapiens, UniProt P50750)
[7] = molecular target: Cyclin-dependent kinase 13 (Homo sapiens, UniProt Q14004)
[8] = molecular target: T4, Cyclin-dependent kinase 9; remark: listed apart in the source
[9] = molecular target: T5, Cyclin-dependent kinase 7 (Homo sapiens, UniProt P50613); test: biochemical
[10] = molecular target: T2, Cyclin-dependent kinase 6; test: Binding affinity to CDK6 (unknown origin) assessed as inhibition constant
[11] = molecular target: T3, Cyclin-dependent kinase 2; test: Binding affinity to CDK2 (unknown origin) extracted from insect cells assessed as inhibition constant; type: cell-free, Insect cell
[12] = molecular target: T4, Cyclin-dependent kinase 9; test: Binding affinity to CDK9 (unknown origin) assessed as inhibition constant
[13] = molecular target: T1, Cyclin-dependent kinase 4; test: Binding affinity to CDK4 (unknown origin) assessed as inhibition constant
[14] = molecular target: T5, Cyclin-dependent kinase 7
[15] = molecular target: T3, Cyclin-dependent kinase 2; remark: listed apart in the source
[16] = molecular target: T1, Cyclin-dependent kinase 4; remark: listed apart in the source
[17] = molecular target: T2, Cyclin-dependent kinase 6; remark: listed apart in the source
[18] = molecular target: Cyclin-dependent kinase 5 (Homo sapiens, UniProt Q00535)
[19] = molecular target: CDK12/Cyclin K (Homo sapiens, UniProt Q9NYV4)
Chain of CDK12/Cyclin K (O75909 whole entry): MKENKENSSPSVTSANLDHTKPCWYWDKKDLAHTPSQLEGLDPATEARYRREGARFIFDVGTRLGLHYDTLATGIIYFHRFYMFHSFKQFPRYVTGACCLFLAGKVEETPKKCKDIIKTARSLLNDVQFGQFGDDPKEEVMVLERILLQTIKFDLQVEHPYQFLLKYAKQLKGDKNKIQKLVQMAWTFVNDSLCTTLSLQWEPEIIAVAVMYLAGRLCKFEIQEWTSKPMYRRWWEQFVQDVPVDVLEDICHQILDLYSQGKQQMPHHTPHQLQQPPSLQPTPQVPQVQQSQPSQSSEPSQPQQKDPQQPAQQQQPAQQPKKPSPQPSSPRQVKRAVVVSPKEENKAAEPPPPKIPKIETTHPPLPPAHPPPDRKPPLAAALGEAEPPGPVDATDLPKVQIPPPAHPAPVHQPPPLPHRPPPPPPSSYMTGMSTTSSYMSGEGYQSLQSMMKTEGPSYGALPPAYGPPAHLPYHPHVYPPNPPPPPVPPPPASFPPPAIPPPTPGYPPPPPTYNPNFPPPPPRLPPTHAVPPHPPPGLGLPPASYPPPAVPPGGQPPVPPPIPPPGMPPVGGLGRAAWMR
Chain of CDK12/Cyclin K (Q9NYV4 whole entry): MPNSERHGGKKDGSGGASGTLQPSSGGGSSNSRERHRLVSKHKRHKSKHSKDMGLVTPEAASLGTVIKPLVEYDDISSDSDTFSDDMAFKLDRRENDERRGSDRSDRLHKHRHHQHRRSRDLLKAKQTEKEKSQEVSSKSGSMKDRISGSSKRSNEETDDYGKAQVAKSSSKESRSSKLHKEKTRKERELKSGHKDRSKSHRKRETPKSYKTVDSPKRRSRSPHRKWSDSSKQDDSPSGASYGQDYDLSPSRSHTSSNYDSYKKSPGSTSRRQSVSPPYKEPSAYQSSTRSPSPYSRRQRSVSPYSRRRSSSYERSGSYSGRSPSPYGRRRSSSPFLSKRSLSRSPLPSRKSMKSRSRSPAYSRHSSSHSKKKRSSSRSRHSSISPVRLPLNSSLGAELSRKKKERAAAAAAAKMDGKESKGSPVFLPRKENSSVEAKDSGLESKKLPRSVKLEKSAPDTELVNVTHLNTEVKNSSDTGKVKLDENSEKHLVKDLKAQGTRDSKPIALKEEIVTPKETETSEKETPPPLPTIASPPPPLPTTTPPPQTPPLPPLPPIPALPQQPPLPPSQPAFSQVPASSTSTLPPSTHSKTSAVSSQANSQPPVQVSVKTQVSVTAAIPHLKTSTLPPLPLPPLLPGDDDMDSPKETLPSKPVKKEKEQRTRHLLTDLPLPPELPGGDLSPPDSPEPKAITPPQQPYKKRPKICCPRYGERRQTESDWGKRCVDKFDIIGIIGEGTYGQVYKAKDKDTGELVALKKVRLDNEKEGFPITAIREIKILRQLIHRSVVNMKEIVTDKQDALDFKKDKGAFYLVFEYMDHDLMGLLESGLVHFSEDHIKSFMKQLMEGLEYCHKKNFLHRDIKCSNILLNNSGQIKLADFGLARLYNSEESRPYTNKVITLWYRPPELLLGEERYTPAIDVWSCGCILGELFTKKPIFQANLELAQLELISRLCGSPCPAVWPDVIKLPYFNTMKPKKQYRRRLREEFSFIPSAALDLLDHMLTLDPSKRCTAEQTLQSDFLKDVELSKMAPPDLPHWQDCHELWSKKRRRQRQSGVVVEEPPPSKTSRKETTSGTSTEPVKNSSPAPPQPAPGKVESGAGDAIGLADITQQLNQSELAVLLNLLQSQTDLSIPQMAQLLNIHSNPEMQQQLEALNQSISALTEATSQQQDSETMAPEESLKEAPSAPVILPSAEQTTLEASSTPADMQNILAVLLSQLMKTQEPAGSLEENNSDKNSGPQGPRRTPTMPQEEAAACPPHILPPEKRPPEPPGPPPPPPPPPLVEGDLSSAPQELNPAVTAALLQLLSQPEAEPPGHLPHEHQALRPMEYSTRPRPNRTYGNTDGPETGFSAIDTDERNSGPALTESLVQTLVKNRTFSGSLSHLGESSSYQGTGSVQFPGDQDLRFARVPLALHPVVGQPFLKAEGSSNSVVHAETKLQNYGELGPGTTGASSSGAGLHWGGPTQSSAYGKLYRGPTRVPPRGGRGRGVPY

T2 sequence (Q00534 whole entry): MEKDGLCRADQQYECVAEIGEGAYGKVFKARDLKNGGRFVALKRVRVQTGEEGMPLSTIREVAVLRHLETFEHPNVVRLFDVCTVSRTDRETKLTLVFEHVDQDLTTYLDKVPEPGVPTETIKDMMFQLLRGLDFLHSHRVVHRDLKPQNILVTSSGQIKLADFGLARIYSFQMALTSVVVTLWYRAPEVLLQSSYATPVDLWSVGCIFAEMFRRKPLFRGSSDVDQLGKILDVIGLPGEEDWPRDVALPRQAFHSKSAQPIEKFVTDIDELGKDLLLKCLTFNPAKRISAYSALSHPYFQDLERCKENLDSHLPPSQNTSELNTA
T4 sequence (P50750 whole entry): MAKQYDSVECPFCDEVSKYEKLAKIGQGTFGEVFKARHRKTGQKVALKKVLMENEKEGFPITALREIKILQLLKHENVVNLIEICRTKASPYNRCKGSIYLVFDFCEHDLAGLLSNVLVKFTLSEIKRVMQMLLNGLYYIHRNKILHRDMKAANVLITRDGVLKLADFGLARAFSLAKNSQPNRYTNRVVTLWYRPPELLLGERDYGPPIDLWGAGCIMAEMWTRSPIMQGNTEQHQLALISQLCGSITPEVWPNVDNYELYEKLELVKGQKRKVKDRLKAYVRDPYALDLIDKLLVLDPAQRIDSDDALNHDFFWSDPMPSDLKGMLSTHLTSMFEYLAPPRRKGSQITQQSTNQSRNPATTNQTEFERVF
T1 sequence (P11802 whole entry): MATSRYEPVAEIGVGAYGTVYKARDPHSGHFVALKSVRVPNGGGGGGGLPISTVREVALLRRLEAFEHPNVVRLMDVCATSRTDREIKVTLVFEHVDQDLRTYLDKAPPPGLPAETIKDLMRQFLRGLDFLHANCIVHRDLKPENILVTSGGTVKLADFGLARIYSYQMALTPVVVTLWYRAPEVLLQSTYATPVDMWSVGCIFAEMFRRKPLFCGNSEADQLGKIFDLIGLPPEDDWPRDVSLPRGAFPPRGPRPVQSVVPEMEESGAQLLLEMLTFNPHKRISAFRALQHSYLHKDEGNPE
T5 sequence (P50613 whole entry): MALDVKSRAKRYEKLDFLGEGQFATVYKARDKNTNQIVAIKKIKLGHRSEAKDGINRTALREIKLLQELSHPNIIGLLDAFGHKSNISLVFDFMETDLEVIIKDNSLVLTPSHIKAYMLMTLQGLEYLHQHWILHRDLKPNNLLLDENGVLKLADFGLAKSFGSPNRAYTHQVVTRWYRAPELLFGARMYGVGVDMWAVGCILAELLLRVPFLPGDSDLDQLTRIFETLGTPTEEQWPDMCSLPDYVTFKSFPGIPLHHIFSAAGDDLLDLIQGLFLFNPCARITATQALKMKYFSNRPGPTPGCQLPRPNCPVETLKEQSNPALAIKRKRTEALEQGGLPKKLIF
Chain of Cyclin-dependent kinase 5 (Q00535 whole entry): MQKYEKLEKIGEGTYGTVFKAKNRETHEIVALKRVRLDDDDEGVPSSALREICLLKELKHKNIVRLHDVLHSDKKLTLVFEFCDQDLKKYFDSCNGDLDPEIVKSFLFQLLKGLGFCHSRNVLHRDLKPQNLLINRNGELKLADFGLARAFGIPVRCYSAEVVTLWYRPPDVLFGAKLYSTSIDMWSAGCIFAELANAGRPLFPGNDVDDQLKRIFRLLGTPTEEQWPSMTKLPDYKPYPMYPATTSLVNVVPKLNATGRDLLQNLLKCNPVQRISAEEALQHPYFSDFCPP
Chain of Cyclin-dependent kinase 1 (P06493 whole entry): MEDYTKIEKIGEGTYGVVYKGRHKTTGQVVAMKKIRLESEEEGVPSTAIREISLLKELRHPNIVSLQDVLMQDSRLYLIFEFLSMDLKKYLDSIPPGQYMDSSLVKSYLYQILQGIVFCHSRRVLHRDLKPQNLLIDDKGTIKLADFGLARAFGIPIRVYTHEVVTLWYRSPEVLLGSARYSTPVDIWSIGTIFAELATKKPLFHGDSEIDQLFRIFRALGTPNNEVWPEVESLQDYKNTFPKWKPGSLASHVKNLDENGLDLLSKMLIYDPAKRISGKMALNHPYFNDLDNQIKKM

Structure (SMILES): CN(C)C/C=C/C(=O)Nc1ccc(C(=O)N2CCC[C@@H](Nc3ncc(Cl)c(-c4c[nH]c5ccccc45)n3)C2)cc1
- IC50 [1]: 690 nM

Structure (SMILES): Cn1cc(-n2cnc3c(NCc4nc5cc(Cl)c(Cl)cc5[nH]4)nc(N4CCOCC4)nc32)cn1
- IC50 [2]: > 10000 nM
- IC50 [3]: < 10000 nM
- Kd [4]: > 10000 nM
- IC50 [5]: > 10000 nM
- Kd [6]: > 10000 nM

Structure (SMILES): CN(C)C/C=C/C(=O)Nc1ccc(C(=O)Nc2cccc(Nc3ncc(Cl)c(-c4c[nH]c5ccccc45)n3)c2)cc1
- IC50 [7]: 620 nM

Structure (SMILES): N[C@H]1CCN(c2c3c(nc4ccc(-c5ccnc(NC(=O)C6CC6)c5)cc24)CCCC3)C1
- IC50 [8]: 2 nM

Structure (SMILES): Clc1cnc(N[C@H]2CCCNC2)nc1-c1c[nH]c2ccccc12
- IC50 [9]: 0.33 nM

Structure (SMILES): CC(=O)c1c(C)c2cnc(NC3CCN(S(C)(=O)=O)CC3)nc2n(C2CCCC2)c1=O
- Ki [10]: 0.2 nM
- Ki [11]: 5.9 nM
- Ki [12]: 9.6 nM
- Ki [13]: 0.2 nM

Structure (SMILES): CN(C)C/C=C/C(=O)Nc1ccc(C(=O)N[C@@]2(C)CCC[C@@H](Nc3ncc(Cl)c(-c4c[nH]c5ccccc45)n3)C2)nc1
- IC50 [14]: 80 nM

Structure (SMILES): N[C@H]1CCN(c2c3c(nc4ccc(-c5ccncc5)cc24)CCCC3)C1
- IC50 [8]: 8 nM
- IC50 [15]: > 500 nM

Structure (SMILES): CC(C)c1cnn2c(NCc3ccccc3)cc(NC[C@H]3CCNC[C@@H]3O)nc12 [CT-7001]
- IC50 [16]: > 9400 nM
- IC50 [17]: > 9400 nM
- IC50 [18]: > 9400 nM

Structure (SMILES): CC(C)c1nn(-c2c(Cl)cccc2Cl)c2nc(Cc3ccc(OCCO)cc3)[nH]c(=O)c12
- EC50 [19]: 12 nM

Structure (SMILES): CC(C)n1cnc2c(NCc3nc4cc(Cl)c(Cl)cc4[nH]3)nc(N3CCOCC3)nc21
- EC50 [19]: 9 nM
